Test results: ChEMBL document CHEMBL3991601, “The target landscape of clinical kinase drugs” (Science, 2017)
Calls of active or inactive are those of the source. Rule as the data show it, for most assays here: actives have a measured Kd and inactives only a lower limit.

Legend:
[1] = target: T1, Ferrochelatase, mitochondrial (Homo sapiens, UniProt P22830)
T1 sequence (P22830 whole entry): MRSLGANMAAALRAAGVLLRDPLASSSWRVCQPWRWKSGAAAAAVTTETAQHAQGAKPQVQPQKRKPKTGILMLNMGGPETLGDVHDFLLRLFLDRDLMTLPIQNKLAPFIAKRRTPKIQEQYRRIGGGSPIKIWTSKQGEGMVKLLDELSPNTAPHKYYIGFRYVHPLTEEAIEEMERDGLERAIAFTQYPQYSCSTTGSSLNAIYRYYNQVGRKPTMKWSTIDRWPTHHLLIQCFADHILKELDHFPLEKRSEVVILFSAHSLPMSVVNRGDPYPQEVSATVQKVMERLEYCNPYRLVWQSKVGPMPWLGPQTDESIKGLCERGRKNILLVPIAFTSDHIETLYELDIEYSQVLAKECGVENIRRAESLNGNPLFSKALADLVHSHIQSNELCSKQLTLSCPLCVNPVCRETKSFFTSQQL

[2] = target: T2, Mitogen-activated protein kinase kinase kinase 5 (Homo sapiens, UniProt Q99683)
T2 sequence (Q99683 whole entry): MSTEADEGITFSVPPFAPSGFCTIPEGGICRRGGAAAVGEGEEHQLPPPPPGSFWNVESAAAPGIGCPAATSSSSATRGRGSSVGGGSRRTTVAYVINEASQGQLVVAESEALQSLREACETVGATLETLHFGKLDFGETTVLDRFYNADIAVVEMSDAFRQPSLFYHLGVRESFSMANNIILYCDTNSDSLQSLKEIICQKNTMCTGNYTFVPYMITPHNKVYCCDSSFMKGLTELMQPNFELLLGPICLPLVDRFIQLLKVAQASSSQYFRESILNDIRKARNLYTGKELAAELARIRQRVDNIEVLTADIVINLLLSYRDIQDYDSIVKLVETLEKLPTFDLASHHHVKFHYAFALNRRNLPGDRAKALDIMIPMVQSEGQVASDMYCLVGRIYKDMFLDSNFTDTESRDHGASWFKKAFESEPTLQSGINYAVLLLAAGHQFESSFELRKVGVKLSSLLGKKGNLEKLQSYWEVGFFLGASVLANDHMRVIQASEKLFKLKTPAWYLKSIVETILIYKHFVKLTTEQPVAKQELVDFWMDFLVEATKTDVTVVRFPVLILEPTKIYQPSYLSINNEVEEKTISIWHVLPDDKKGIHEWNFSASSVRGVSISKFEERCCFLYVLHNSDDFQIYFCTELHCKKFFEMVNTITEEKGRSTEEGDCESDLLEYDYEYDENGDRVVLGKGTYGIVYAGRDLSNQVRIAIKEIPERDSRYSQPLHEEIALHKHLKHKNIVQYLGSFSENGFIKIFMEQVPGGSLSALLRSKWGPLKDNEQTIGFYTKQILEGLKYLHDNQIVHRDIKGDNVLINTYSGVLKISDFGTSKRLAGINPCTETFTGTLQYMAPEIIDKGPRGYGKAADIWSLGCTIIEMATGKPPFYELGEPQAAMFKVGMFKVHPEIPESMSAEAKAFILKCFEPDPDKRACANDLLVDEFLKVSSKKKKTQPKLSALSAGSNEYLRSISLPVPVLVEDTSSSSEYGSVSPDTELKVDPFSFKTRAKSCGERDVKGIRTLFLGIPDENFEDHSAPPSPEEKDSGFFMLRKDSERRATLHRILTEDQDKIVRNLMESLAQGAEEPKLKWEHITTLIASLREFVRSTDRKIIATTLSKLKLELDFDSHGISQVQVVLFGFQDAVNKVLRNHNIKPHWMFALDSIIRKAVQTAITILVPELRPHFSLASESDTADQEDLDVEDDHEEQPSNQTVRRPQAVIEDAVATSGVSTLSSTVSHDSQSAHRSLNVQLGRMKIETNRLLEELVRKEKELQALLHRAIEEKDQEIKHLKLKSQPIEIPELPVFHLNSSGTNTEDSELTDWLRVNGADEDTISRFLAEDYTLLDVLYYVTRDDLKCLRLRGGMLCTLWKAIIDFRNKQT

[3] = target: Inosine-5'-monophosphate dehydrogenase 2 (Homo sapiens, UniProt P12268)
[4] = target: Tyrosine-protein kinase CSK (Homo sapiens, UniProt P41240)
Deoxycytidine kinase = Deoxycytidine kinase (Homo sapiens, UniProt P27707)
[5] = target: Proto-oncogene tyrosine-protein kinase Src (Homo sapiens, UniProt P12931)
[6] = target: Tyrosine-protein kinase Fyn (Homo sapiens, UniProt P06241)
[7] = target: T3, Dual specificity mitogen-activated protein kinase kinase 6 (Homo sapiens, UniProt P52564)
T3 sequence (P52564 whole entry): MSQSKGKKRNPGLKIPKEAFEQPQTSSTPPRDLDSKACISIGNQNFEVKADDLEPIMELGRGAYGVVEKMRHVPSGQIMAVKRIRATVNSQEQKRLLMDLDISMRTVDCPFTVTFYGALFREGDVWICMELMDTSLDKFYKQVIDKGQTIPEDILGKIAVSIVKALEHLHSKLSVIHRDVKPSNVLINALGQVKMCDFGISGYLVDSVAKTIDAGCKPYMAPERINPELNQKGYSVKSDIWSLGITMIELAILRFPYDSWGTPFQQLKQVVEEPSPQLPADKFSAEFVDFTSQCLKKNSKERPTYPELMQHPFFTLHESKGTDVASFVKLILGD

[8] = target: T4, AarF domain-containing protein kinase 1 (Homo sapiens, UniProt Q86TW2)
T4 sequence (Q86TW2 whole entry): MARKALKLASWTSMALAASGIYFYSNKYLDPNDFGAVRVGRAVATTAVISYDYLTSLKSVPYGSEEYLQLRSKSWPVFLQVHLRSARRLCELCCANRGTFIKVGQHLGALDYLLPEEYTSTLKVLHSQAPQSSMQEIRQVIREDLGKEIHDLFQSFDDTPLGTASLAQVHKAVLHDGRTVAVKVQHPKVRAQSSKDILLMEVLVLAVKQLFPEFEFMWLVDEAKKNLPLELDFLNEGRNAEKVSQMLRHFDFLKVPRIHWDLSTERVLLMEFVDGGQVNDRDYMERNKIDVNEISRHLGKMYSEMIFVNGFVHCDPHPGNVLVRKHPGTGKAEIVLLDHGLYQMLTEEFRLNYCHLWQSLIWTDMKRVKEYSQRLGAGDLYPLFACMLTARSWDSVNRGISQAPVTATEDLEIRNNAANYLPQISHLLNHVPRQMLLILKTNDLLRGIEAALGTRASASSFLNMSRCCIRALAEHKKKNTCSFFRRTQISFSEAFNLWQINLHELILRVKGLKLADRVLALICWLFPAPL

Aurora kinase B = Aurora kinase B (Homo sapiens, UniProt Q96GD4)
Also: in the data inactive means no Kd found up to 30 µM.

Sequence of Deoxycytidine kinase (P27707 whole entry): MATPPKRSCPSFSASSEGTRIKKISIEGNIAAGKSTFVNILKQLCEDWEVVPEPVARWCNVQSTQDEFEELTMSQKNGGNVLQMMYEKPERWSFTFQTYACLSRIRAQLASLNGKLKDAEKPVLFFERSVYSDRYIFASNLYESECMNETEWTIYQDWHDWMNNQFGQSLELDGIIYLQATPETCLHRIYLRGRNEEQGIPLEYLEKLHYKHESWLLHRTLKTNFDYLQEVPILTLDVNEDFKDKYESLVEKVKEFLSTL
Sequence of Tyrosine-protein kinase Fyn (P06241 whole entry): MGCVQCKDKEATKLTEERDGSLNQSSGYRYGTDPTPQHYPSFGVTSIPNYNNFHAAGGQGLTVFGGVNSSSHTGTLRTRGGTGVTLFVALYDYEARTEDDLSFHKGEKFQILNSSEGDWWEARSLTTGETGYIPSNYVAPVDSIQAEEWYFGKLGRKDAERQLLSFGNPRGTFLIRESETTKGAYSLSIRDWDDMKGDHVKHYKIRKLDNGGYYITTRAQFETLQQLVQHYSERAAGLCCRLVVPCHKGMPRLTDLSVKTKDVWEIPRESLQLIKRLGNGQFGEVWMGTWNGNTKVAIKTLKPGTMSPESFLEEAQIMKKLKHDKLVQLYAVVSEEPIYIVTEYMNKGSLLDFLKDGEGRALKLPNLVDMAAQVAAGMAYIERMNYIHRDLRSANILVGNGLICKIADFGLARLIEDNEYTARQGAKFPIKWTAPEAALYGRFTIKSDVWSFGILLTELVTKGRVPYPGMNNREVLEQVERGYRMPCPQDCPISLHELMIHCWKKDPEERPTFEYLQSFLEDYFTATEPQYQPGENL
Sequence of Aurora kinase B (Q96GD4 whole entry): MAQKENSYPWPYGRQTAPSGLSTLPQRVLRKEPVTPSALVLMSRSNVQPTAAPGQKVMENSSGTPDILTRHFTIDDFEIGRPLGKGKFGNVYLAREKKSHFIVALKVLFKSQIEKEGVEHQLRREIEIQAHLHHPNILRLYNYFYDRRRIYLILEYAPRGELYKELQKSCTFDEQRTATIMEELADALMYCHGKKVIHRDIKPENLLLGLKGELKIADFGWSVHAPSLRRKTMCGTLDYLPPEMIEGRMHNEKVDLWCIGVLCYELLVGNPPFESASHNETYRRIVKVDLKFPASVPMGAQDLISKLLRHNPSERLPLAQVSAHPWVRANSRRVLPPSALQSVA
Sequence of Proto-oncogene tyrosine-protein kinase Src (P12931 2-536 limits assumed): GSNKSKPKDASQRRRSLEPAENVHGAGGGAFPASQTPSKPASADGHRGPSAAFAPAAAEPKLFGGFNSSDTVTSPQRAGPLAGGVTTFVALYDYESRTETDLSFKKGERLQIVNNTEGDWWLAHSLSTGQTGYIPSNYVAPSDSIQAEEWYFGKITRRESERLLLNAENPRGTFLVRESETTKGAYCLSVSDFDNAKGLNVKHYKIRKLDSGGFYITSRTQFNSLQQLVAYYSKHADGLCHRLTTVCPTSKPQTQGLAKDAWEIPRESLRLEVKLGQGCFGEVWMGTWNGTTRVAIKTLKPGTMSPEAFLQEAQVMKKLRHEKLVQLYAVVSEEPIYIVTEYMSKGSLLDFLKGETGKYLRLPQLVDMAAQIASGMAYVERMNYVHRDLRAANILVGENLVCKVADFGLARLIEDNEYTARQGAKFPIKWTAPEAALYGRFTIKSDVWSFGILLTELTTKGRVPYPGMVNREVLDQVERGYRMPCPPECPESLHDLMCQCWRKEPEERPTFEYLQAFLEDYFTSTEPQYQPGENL

Kd [1] | Kd [2] | Kd [3] | Kd [4] | Kd (Deoxycytidine kinase) | Kd [5] | Kd [6] | Kd [7] | Kd [8] | Kd (Aurora kinase B) | SMILES
> 30 µM (inactive) | > 30 µM (inactive) | > 30 µM (inactive) | > 30 µM (inactive) | > 30 µM (inactive) | 1.13 µM (active) | > 30 µM (inactive) | > 30 µM (inactive) | > 30 µM (inactive) | > 30 µM (inactive) | COc1cc2c(Nc3ccc(Cl)c(Cl)c3F)ncnc2cc1OC[C@@H]1C[C@@H]2CN(C)C[C@@H]2C1 [TESEVATINIB]
> 30 µM (inactive) | > 30 µM (inactive) | > 30 µM (inactive) | > 30 µM (inactive) | > 30 µM (inactive) | > 30 µM (inactive) | > 30 µM (inactive) | > 30 µM (inactive) | > 30 µM (inactive) | > 30 µM (inactive) | CO[C@H]1C[C@@H]2CC[C@@H](C)[C@@](O)(O2)C(=O)C(=O)N2CCCC[C@H]2C(=O)O[C@H]([C@H](C)C[C@@H]2CC[C@@H](OC(=O)C(C)(CO)CO)[C@H](OC)C2)CC(=O)[C@H](C)/C=C(\C)[C@@H](O)[C@@H](OC)C(=O)[C@H](C)C[C@H](C)/C=C/C=C/C=C/1C [TEMSIROLIMUS]
> 30 µM (inactive) | > 30 µM (inactive) | > 30 µM (inactive) | > 30 µM (inactive) | > 30 µM (inactive) | > 30 µM (inactive) | > 30 µM (inactive) | > 30 µM (inactive) | > 30 µM (inactive) | > 30 µM (inactive) | Cn1cnc2c(F)c(Nc3ccc(Br)cc3F)c(C(=O)NOCCO)cc21 [BINIMETINIB]
> 30 µM (inactive) | > 30 µM (inactive) | > 30 µM (inactive) | > 30 µM (inactive) | > 30 µM (inactive) | > 30 µM (inactive) | > 30 µM (inactive) | > 30 µM (inactive) | > 30 µM (inactive) | > 30 µM (inactive) | COc1c(OCCCN2CCOCC2)ccc2c1N=C(NC(=O)c1cnc(N)nc1)N1CCN=C21 [COPANLISIB]
> 30 µM (inactive) | > 30 µM (inactive) | > 30 µM (inactive) | > 30 µM (inactive) | > 30 µM (inactive) | > 30 µM (inactive) | > 30 µM (inactive) | > 30 µM (inactive) | > 30 µM (inactive) | > 30 µM (inactive) | O=c1[nH]ccc2cc(OC3CCNCC3)ccc12 [SAR-407899 FREE BASE]
> 30 µM (inactive) | > 30 µM (inactive) | > 30 µM (inactive) | > 30 µM (inactive) | > 30 µM (inactive) | > 30 µM (inactive) | > 30 µM (inactive) | > 30 µM (inactive) | > 30 µM (inactive) | 22.9 µM (active) | CNC(=O)c1cccc2cc(Oc3ccnc4cc(OCC5(N)CC5)c(OC)cc34)ccc12 [LUCITANIB]
> 30 µM (inactive) | > 30 µM (inactive) | > 30 µM (inactive) | > 30 µM (inactive) | > 30 µM (inactive) | > 30 µM (inactive) | > 30 µM (inactive) | > 30 µM (inactive) | > 30 µM (inactive) | > 30 µM (inactive) | C=CC(=O)Nc1cc2c(Nc3ccc(F)c(Cl)c3)ncnc2cc1C#CC(C)(C)N1CCN(C)CC1 [AV-412 FREE BASE]
> 30 µM (inactive) | > 30 µM (inactive) | > 30 µM (inactive) | > 30 µM (inactive) | > 30 µM (inactive) | > 30 µM (inactive) | > 30 µM (inactive) | > 30 µM (inactive) | > 30 µM (inactive) | > 30 µM (inactive) | C[C@@H](NC(=O)c1ncnc(N)c1Cl)c1ncc(C(=O)Nc2cc(C(F)(F)F)c(Cl)cn2)s1 [TOVORAFENIB]
> 30 µM (inactive) | > 30 µM (inactive) | > 30 µM (inactive) | > 30 µM (inactive) | > 30 µM (inactive) | > 30 µM (inactive) | > 30 µM (inactive) | > 30 µM (inactive) | > 30 µM (inactive) | > 30 µM (inactive) | Cn1cc(-c2cnn3c(N)c(Br)c([C@@H]4CCCNC4)nc23)cn1 [SCH-900776]
> 30 µM (inactive) | > 30 µM (inactive) | > 30 µM (inactive) | > 30 µM (inactive) | > 30 µM (inactive) | > 30 µM (inactive) | > 30 µM (inactive) | > 30 µM (inactive) | > 30 µM (inactive) | > 30 µM (inactive) | CCn1c(C(=O)N(C2CC2)C2CC2)cc2c3c(ncn3C)c(Nc3cc(C)n(C)n3)nc21 [BMS-911543]
